Laboratory results published in PMC12097107, “Identification and Biological Evaluation of a Novel CLK4 Inhibitor Targeting Alternative Splicing in Pancreatic Cancer Using Structure‐Based Virtual Screening” (Advanced Science, 2025).
pIC50: −log10 of the molar value.

Key:
[1] = biological target: T1, CLK4 (Cdc-like kinase 4; Cdc2-like kinase 4) (Homo sapiens, UniProt Q9HAZ1); assay: LanthaScreen Eu kinase binding assay (FRET)
Source text: (§1) LanthaScreen Eu kinase binding assay (FRET) on CLK4 (Cdc-like kinase 4; Cdc2-like kinase 4)

CLK1 [2] = biological target: T2, CLK1 (Homo sapiens, UniProt P49759); assay: SelectScreen kinase profiling (assay format per kinase not given); format: biochemical; settings: read-out: % inhibition at 30 nM
T2 construct: Thermo Fisher SelectScreen panel kinase

CLK2 [3] = biological target: T3, CLK2 (Homo sapiens, UniProt P49760); assay: as above; format: biochemical; settings: read-out: % inhibition at 30 nM
T3 construct: Thermo Fisher SelectScreen panel kinase

CLK1 [4] = biological target: T2, CLK1; assay: biochemical; design: Thermo Fisher SelectScreen kinase assays (LanthaScreen Eu binding, Adapta or Z'LYTE), per cent inhibition
Description: (§2) Enzyme‐based assays were carried out by Thermo Fisher Scientific (Waltham, MA, USA). Thermo Fisher Scientific utilizes LanthaScreen Eu Kinase Binding Assay Technology (www.thermofisher.com/lanthascreen), which is based on fluorescence resonance energy transfer (FRET), to conduct the kinase activity assays. Fluorescent receptor dyes are conjugated to the kinase, and an Eu‐labeled anti‐tag antibody is added to detect the phosphorylated fluorescein‐labeled substrate. The fluorescence‐labeled kinase, antibody, and test compounds are combined in an appropriate buffer solution. After incubation, the mixture is placed in a fluorescent plate reader capable of detecting FRET signals. FRET efficiency is calculated by comparing the ratio of the acceptor emission to the donor emission. The selected compounds were evaluated at specified concentrations, and IC50 values were determined using GraphPad Prism software (La Jolla, CA, USA). Each enzymatic activity assay was performed in duplicate, following the quality control guidelines of Thermo Fisher Scientific. Kinase profiling was carried out using the SelectScreen kinase profiling service provided by Thermo Fisher Scientific, with supplementary assays such as Adapta and Z'LYTE included when available for the respective kinases. The detailed protocols are available at the following links: www.thermofisher.com/adapta and https://www.thermofisher.com/z‐lyte. Selectivity is essential for kinase inhibitors to minimize off‐target effects and reduce adverse reactions. Selective inhibitors also enable researchers to better understand the specific functions of targets like CLK4 in physiological and pathological pathways. Therefore, we further evaluated the selectivity of compound 150441 using kinase profiling analysis. The compound was tested at a concentration of 30 nM against a panel of 60 kinases from various families using Thermo Fisher SelectScreen kinase profiling services (Figure 7 ). […] In addition, CLKs comprise four isoforms: CLK1, CLK2, CLK3, and CLK4.

CLK2 [5] = biological target: T3, CLK2; assay: biochemical; design: Thermo Fisher SelectScreen kinase assays (LanthaScreen Eu binding, Adapta or Z'LYTE), per cent inhibition
Description: as §2

[6] = biological target: T1, CLK4 (Cdc-like kinase 4; Cdc2-like kinase 4); assay: biochemical; design: Thermo Fisher SelectScreen kinase assays (LanthaScreen Eu binding, Adapta or Z'LYTE), per cent inhibition
Description: as §2

CLK3 [7] = biological target: T4, CLK3 (Homo sapiens, UniProt P49761); assay: biochemical; design: Thermo Fisher SelectScreen kinase assays (LanthaScreen Eu binding, Adapta or Z'LYTE), per cent inhibition
T4 construct: Thermo Fisher SelectScreen panel kinase
Description: as §2

CLK3 [8] = biological target: T4, CLK3; assay: SelectScreen kinase profiling (assay format per kinase not given); format: biochemical; settings: read-out: % inhibition at 30 nM
[9] = biological target: T1, CLK4 (Cdc-like kinase 4; Cdc2-like kinase 4); assay: LanthaScreen Eu kinase binding assay (FRET); format: biochemical
Source text: as §1

T2 sequence (P49759 whole entry): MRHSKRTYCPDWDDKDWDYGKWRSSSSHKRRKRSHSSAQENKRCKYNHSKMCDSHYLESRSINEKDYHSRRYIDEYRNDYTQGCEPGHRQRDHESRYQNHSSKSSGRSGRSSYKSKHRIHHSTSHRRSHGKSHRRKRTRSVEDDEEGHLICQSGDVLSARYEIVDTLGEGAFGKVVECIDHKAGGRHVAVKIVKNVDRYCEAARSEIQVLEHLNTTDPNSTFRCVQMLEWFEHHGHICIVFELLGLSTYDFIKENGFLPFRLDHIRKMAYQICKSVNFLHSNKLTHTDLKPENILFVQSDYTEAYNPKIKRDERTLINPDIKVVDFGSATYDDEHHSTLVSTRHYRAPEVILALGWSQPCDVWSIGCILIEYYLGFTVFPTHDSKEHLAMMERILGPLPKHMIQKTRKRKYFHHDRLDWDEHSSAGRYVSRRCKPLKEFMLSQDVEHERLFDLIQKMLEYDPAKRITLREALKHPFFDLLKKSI
T1 sequence (Q9HAZ1 whole entry): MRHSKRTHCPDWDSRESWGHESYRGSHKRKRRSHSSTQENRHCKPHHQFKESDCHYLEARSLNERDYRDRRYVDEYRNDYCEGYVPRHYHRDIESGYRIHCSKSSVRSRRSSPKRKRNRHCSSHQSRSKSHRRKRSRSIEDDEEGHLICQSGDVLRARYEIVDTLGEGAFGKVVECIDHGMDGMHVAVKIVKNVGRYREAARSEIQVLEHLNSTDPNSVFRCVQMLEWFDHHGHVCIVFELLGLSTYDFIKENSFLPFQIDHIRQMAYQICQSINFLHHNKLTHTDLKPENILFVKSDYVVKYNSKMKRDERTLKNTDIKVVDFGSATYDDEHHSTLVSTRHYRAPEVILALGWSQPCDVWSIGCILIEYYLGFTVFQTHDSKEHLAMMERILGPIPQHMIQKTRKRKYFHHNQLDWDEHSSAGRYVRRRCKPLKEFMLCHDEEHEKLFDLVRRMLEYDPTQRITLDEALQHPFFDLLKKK
T4 sequence (P49761 whole entry): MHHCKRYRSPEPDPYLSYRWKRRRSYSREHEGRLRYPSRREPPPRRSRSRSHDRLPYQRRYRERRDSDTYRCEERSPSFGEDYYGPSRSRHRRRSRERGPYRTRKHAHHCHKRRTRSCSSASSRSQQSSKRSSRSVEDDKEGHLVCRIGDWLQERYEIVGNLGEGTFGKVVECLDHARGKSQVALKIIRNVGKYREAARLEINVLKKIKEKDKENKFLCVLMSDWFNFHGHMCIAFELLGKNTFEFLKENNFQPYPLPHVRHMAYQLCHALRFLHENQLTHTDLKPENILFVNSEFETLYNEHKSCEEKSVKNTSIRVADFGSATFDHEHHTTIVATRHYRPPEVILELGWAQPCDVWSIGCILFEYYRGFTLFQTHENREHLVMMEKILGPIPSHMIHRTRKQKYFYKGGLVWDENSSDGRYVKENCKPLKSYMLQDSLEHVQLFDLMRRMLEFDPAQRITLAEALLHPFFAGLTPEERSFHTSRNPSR
T3 sequence (P49760 whole entry): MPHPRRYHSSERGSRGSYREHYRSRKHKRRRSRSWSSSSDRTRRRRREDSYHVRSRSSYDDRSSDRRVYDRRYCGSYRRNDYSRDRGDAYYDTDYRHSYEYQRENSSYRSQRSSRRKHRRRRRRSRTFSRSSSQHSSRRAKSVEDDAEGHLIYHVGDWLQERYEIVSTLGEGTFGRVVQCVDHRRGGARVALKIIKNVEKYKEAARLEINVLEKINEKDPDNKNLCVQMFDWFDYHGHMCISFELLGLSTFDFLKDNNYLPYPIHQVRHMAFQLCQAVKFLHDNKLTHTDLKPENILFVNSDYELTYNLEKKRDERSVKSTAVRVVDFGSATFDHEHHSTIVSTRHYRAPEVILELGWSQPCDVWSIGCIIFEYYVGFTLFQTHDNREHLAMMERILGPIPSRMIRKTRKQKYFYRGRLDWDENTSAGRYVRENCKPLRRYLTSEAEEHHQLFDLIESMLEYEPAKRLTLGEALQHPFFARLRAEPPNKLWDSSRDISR

| Structure (SMILES) | pIC50 [1] | inhibition at 1 µM (CLK1 [4]) [%] | inhibition at 1 µM (CLK2 [5]) [%] | inhibition at 1 µM [6] [%] | inhibition at 1 µM (CLK3 [7]) [%] | also measured |
| --- | --- | --- | --- | --- | --- | --- |
| COc1ccc2[nH]c3c(C)c4ccncc4c(C)c3c2c1 [compound 69187, 69187] | 7.01 | – | – | – | – | – |
| Cc1c2cnccc2c(C)c2c1c1ccccc1n2CCN(C)C [compound 150441, 150441] | 7.67 | 75 | 62 | 98 | 6 | inhibition at 0.03 µM (CLK1 [2]): 7%; inhibition at 0.03 µM (CLK2 [3]): 9.1%; inhibition at 0.03 µM (CLK3 [8]): 1.8% |
| COc1ccc2c(c1)c1c(C)c3cnccc3c(C)c1n2CC1CO1 (centres unmarked) [compound 150836, 150836] | 7.00 | – | – | – | – | – |
| Cc1c2cnccc2c(C)c2c1c1ccccc1n2CC1CO1 (centres unmarked) [compound 152731, 152731] | 7.42 | 86 | 81 | 98 | 4 | – |
| Cc1c2cnccc2c(C)c2c1c1ccccc1n2CCNCc1ccccc1 [compound 164016, 164016] | 7.46 | 65 | 69 | 95 | 7 | – |
| COc1ccc2[nH]c3c(C)c4cc[n+]([O-])cc4c(C)c3c2c1 [compound 237069, 237069] | – | – | – | – | – | inhibition at 1 µM [9]: 47% |
| Cc1c2c(C(N)=O)nccc2c(C)c2c1c1ccccc1n2Cc1ccccc1 [compound 320613, 320613] | – | – | – | – | – | inhibition at 1 µM [9]: 3% |
| Cc1c2cnccc2c(C)c2c1c1ccccc1n2Cc1ccccc1 [compound 322087, 322087] | 6.92 | – | – | – | – | – |
